From patent publication US20260234147A1 (priority 2023, published 2026)
Like-named read-outs stand apart in the source and are kept apart here.

Key:
hDOR = hDOR (Homo sapiens, UniProt P41143); assay: Radioligand binding assay (Eurofins Cerep), [3H]DADLE displacement
hKOR = hKOR (Homo sapiens, UniProt P41145); assay: Radioligand binding assay (Eurofins Cerep), [3H]U69,593 displacement
hMOR = hMOR (Homo sapiens, UniProt P35372); assay: Radioligand binding assay (Eurofins Cerep), [3H]DAMGO displacement
α2A adrenergic receptor = biological target: T1, α2A adrenergic receptor (Homo sapiens, UniProt P08913); assay: Radioligand binding assay (Eurofins Cerep), [3H]RX 821002 displacement
T1 construct: Eurofins Cerep (contract screening)
T1 sequence (P08913 1-465): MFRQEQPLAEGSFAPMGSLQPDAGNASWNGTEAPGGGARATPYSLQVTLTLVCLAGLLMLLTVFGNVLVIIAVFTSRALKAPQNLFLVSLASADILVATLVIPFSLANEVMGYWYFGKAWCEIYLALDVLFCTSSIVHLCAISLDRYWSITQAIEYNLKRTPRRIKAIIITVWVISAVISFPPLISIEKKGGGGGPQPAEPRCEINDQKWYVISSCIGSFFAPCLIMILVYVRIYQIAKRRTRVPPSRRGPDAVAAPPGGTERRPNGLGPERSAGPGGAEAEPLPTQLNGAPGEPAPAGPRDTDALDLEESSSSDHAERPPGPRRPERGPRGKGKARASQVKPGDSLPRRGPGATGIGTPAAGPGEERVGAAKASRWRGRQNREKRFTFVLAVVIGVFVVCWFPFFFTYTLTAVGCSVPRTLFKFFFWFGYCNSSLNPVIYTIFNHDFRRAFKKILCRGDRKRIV

[1] = Table B1′, read-out: DOR Ki ± SEM
[2] = Table B1′, read-out: KOR Ki ± SEM
[3] = Table B1′, read-out: MOR Ki ± SEM
[4] = alpha2A Ki ± SEM (nM), Table B1′
[5] = Table B1′, read-out: alpha2A Ki ± SEM
[6] = Table 3-2, 3 independent experiments, read-out: Ki (nM ± SEM) DOR
[7] = Table 3-2, 3 independent experiments, read-out: Ki (nM ± SEM) KOR
[8] = Table 3-2, 3 independent experiments, read-out: Ki (nM ± SEM) MOR
[9] = Ki (nM ± SEM) a2A-AR, Table 3-2, 3 independent experiments
[10] = Table 3-3, 3 independent experiments, read-out: Ki (nM ± SEM) KOR
[11] = Table 3-3, 3 independent experiments, read-out: Ki (nM ± SEM) MOR
[12] = Table 3-3, 3 independent experiments, read-out: Ki (nM ± SEM) DOR
[13] = Table 3-3, 3 independent experiments, read-out: Ki (nM ± SEM) a2A-AR

hMOR, sequence (P35372 whole entry): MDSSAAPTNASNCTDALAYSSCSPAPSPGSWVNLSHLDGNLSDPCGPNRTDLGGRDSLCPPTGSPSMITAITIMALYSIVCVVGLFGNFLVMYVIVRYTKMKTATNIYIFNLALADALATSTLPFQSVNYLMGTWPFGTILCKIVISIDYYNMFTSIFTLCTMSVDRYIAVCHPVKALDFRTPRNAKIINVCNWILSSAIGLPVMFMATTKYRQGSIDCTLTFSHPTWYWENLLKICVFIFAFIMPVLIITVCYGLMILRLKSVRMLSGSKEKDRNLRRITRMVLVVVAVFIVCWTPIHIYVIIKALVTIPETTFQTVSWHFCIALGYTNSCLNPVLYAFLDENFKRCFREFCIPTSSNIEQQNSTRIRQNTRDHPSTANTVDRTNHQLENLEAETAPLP
hKOR, sequence (P41145 whole entry): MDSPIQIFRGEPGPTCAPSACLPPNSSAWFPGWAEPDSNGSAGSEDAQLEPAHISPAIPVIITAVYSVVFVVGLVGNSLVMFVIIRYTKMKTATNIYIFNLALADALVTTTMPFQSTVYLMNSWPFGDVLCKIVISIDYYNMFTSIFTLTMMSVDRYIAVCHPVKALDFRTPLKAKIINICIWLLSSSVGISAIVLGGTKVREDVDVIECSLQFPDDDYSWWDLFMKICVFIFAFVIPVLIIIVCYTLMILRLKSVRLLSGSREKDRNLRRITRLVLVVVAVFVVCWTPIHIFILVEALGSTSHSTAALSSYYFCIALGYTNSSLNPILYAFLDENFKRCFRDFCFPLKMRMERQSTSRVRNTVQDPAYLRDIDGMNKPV
hDOR, sequence (P41143 whole entry): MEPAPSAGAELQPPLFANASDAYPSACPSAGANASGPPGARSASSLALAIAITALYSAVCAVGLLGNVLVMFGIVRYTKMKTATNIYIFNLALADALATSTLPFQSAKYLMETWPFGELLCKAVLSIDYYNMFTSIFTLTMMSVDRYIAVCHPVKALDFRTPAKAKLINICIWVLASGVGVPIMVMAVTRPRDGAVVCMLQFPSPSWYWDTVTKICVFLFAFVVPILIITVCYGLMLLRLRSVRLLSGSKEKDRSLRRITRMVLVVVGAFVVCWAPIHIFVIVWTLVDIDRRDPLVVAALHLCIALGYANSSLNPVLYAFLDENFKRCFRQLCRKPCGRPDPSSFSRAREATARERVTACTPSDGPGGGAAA

With `COc1ccccc1C1(O)CCN2CCC(=O)CC2C1` (stereo not drawn) the Ki (hDOR; [1]) was > 10000 nM, the Ki (hKOR; [2]) was > 10000 nM and the Ki (hMOR; [3]) was > 10000 nM. The Ki (α2A adrenergic receptor; [4]) was 5750 ± 1170 nM.

In the case of `COC(=O)CC1CCN2CCC(c3ccccc3OC)=CC2C1` (stereo not drawn), the Ki (hDOR; [1]) is reported as > 10000 nM, the Ki (hKOR; [2]) is reported as > 10000 nM and the Ki (hMOR; [3]) is reported as > 10000 nM. For the same compound, the Ki (α2A adrenergic receptor; [4]) was 39 ± 3 nM.

With `COC(=O)CC1CCN2CC=C(c3ccccc3OC)CC2C1` (stereo not drawn) the Ki (hDOR; [1]) was > 10000 nM, the Ki (hKOR; [2]) was > 10000 nM and the Ki (hMOR; [3]) was > 10000 nM. It also gave a Ki (α2A adrenergic receptor; [5]) of 15 nM.

For `COC(=O)CC1CCN2CCC(c3ccccc3)=CC2C1` (stereo not drawn), the Ki (hDOR; [1]) was > 10000 nM, the Ki (hKOR; [2]) was 683 ± 142 nM and the Ki (hMOR; [3]) was 7930 ± 1340 nM. For the same compound, the Ki (α2A adrenergic receptor; [5]) was 5 ± 2 nM.

`COC(=O)CC1CCN2CC=C(c3ccccc3)CC2C1` (stereo not drawn) was tested, and the Ki (hDOR; [1]) was > 10000 nM, the Ki (hKOR; [2]) was 957 ± 188 nM and the Ki (hMOR; [3]) was 6980 ± 1450 nM. The Ki (α2A adrenergic receptor; [5]) was 7 ± 2 nM.

`COC(=O)C=C1CCN2CCC(O)(c3ccc(F)cc3)CC2C1` (stereo not drawn) was tested, and the Ki (hDOR; [1]) was > 10000 nM, the Ki (hKOR; [2]) was > 10000 nM and the Ki (hMOR; [3]) was 672 ± 222 nM. The Ki (α2A adrenergic receptor; [4]) was 311 ± 73 nM.

With `COC(=O)CC1CCN2CCC(O)(c3ccc(F)cc3)CC2C1` (stereo not drawn) the Ki (hDOR; [1]) was > 10000 nM, the Ki (hKOR; [2]) was > 10000 nM and the Ki (hMOR; [3]) was 424 ± 203 nM. It also gave a Ki (α2A adrenergic receptor; [4]) of 240 ± 63 nM.

For `COC(=O)CC1CCN2CCC(O)(c3ccccc3OC)CC2C1` (single isomer, unassigned), the Ki (hDOR; [1]) was > 10000 nM, the Ki (hKOR; [2]) was > 10000 nM and the Ki (hMOR; [3]) was > 10000 nM. For the same compound, the Ki (α2A adrenergic receptor; [4]) was 3470 ± 1790 nM.

`COC=C(C(=O)OC)C1CCN(CCc2c[nH]c3ccc(OC)cc23)CC1` [Compound 3-37] was tested, and the Ki (hDOR; [6]) was > 10000 nM, the Ki (hKOR; [7]) was 1300 ± 129 nM and the “SR: Selectivity Ratio (KiMOR/Kiα2A)” value (hMOR; Table 3-2) was 0.22. For the same compound, the Ki (hMOR; [8]) was 733 ± 144 nM and the Ki (α2A adrenergic receptor; [9]) was 3370 ± 586 nM.

`COC(=O)CC1CCN(CCc2c[nH]c3ccc(OC)cc23)CC1` [Compound 3-38] was tested, and the Ki (hDOR; [6]) was > 10000 nM, the Ki (hKOR; [7]) was 8070 ± 810 nM and the Ki (hMOR; [8]) was > 10000 nM. It also gave a Ki (α2A adrenergic receptor; [9]) of 1590 ± 225 nM.

For `COC=C(C(=O)OC)C1CCN(CCc2c[nH]c3cc(OC)ccc23)CC1` [Compound 3-39], the Ki (hDOR; [6]) was > 10000 nM, the Ki (hKOR; [7]) was 9450 ± 2970 nM and the Ki (hMOR; [8]) was > 10000 nM. The Ki (α2A adrenergic receptor; [9]) was > 10000 nM.

In the case of `COC(=O)CC1CCN(CCc2c[nH]c3cc(OC)ccc23)CC1` [Compound 3-40], the Ki (hDOR; [6]) is reported as > 10000 nM, the Ki (hKOR; [7]) is reported as > 10000 nM and the Ki (hMOR; [8]) is reported as > 10000 nM. It also gave a Ki (α2A adrenergic receptor; [9]) of 2840 ± 599 nM.

For `COC=C(C(=O)OC)C1CCN(CCc2c[nH]c3c(OC)cccc23)CC1` [Compound 3-41], the Ki (hDOR; [6]) was > 10000 nM, the Ki (hKOR; [7]) was > 10000 nM and the “SR: Selectivity Ratio (KiMOR/Kiα2A)” value (hMOR; Table 3-2) was 1.04. For the same compound, the Ki (hMOR; [8]) was 5130 ± 8.35 nM and the Ki (α2A adrenergic receptor; [9]) was 4900 ± 829 nM.

In the case of `COC(=O)CC1CCN(CCc2c[nH]c3ccccc23)CC1` [Compound 3-43], the Ki (hDOR; read-out: Ki (nM ± SEM) DOR, Table 3-3, 3 independent experiments) is reported as > 10000 nM, the Ki (hKOR; [10]) is reported as > 10000 nM and the Ki (hMOR; [11]) is reported as 8910 ± 1800 nM. For the same compound, the Ki (α2A adrenergic receptor; read-out: Ki (nM ± SEM) a2A-AR, Table 3-3, 3 independent experiments) was 1840 ± 201 nM.

`COC(=O)CC1CCN(CCc2cn(CC(F)(F)F)c3ccccc23)CC1` [Compound 3-44] was tested, and the Ki (hDOR; [12]) was > 10000 nM, the Ki (hKOR; [10]) was > 10000 nM and the “SR: Selectivity Ratio (KiMOR/Kiα2A)” value (hMOR; Table 3-3) was 0.76. For the same compound, the Ki (hMOR; [11]) was 1480 ± 406 nM and the Ki (α2A adrenergic receptor; [13]) was 1940 ± 410 nM.

With `COC(=O)CC1CCN(CCc2cn(CCc3c[nH]c4ccccc34)c3ccccc23)CC1` [Compound 3-45] the Ki (hDOR; [12]) was > 10000 nM, the Ki (hKOR; [10]) was > 10000 nM and the “SR: Selectivity Ratio (KiMOR/Kiα2A)” value (hMOR; Table 3-3) was 1.32. The Ki (hMOR; [11]) was 9280 ± 1730 nM and the Ki (α2A adrenergic receptor; [13]) was 7030 ± 2020 nM.

In the case of `COC(=O)CC1CCN(CC(=O)N2CCc3c(OC)cccc32)CC1` [Compound 3-46], the Ki (hDOR; [12]) is reported as > 10000 nM, the Ki (hKOR; [10]) is reported as > 10000 nM and the Ki (hMOR; [11]) is reported as > 10000 nM. For the same compound, the Ki (α2A adrenergic receptor; [13]) was 6370 ± 1160 nM.
